# “Also recorded” adds a separate entry of the source.
# Tests used:
# [1] = molecular target: Cdk9-cyclin T1 (Homo sapiens, UniProt P50750); test: In vitro kinase assay, Cdk9-cyclin T1 (in-house); assay type: biochemical; conditions: three independent experiments; read-out: IC50 (mean±S.D.), Cdk9-cyclin T1
# Protocol: (§1) The in vitro kinase assays for testing against Cdk4-cyclin D1, Cdk2-cyclin A, Cdk1-cyclin B1 and Cdk9-cyclin T1 were performed in-house. The methodology and results have been reported previously.[20], [30], [31], [32], [45] The kinase profiling for 58 representative kinases was carrried out commercially at Millipore Bioscience Division, Livingston, UK.
# [2] = molecular target: Cdk5-p35 (Homo sapiens, UniProt Q00535); test: Kinase profiling (Millipore), Cdk5-p35; assay type: biochemical
# Cdk5-p35, sequence (Q00535 whole entry): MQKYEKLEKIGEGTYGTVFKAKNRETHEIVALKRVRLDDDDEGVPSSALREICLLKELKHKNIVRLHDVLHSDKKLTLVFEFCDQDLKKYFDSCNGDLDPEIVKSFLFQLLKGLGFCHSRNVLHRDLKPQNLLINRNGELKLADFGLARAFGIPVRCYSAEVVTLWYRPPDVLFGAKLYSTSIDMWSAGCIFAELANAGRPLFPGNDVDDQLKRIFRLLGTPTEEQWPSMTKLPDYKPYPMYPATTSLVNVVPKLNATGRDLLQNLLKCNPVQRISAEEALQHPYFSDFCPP
# Cdk5-p35, sequence (Q15078 whole entry partner): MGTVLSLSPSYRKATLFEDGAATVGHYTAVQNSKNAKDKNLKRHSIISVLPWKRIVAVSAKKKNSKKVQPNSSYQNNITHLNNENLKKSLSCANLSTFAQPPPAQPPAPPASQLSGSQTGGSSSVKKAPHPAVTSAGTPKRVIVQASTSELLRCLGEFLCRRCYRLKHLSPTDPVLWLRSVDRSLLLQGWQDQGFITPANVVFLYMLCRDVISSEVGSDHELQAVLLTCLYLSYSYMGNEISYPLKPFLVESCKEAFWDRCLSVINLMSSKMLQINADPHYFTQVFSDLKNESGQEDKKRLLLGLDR
# Protocol: as §1
# [3] = molecular target: GSK3β (Homo sapiens, UniProt P49841); test: Kinase profiling (Millipore), GSK3β; assay type: biochemical
# GSK3β, sequence (P49841 whole entry): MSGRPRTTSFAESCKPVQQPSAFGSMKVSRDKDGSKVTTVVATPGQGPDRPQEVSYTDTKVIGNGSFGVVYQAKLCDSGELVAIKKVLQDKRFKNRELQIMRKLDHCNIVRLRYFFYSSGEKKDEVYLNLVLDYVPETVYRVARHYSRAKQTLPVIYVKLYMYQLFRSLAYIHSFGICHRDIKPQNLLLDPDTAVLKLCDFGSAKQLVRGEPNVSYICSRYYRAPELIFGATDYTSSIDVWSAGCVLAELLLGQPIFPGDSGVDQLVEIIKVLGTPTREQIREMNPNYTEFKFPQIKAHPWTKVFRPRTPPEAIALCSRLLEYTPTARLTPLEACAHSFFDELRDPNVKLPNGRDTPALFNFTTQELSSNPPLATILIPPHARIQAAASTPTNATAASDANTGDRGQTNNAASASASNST
# Protocol: as §1
# [4] = molecular target: PKA (Homo sapiens, UniProt P17612); test: Kinase profiling (Millipore), PKA; assay type: biochemical
# Protocol: as §1
# [5] = test system: panel of 58 representative kinases; test: Kinase profiling, panel of 58 representative kinases; assay type: biochemical; conditions: at 10 μM
# Protocol: as §1
# [6] = test system: PC-3 (prostate; p53 null, pRb+); test: Cell proliferation (MTT) assay, PC-3; assay type: cell-based; conditions: Homo sapiens, 48 h, read-out: IC50 cell growth inhibition, PC-3
# Protocol: (§2) All 10 human cancer cell lines were maintained at 37 °C in 5% CO2 in RPMI-1640 medium, supplemented with 10% foetal calf serum and 100 μg/ml normocin. The 10 cancer cell lines used for screening were all obtained from ATCC (Manassas, VA, USA); they were the NSCLC (a form of cancer that is resistant to chemotherapy) lines: NCI-H460 (pRb^+, p53^+), A549 (pRb^+, p53^+), Calu-1 (pRb^+, p53-null), NCI-H1299 (pRb^+, p53-null), NCI-H358 (pRb-null, p53-null); the colon cancer line LS174T (pRb^+, p53^+); the prostate cancer line PC-3 (pRb^+, p53-null); the pancreatic cancer line MiaPaca (pRb^+, p53-mutant). The genotypes within brackets indicate the status of the tumour suppressor proteins pRb and p53. The mouse embryonic normal hepatic cell line (BNL CL2) and its SV40 large T-antigen-transformed counterpart cell line (BNL SV A.8) were also purchased from ATCC. The large T-antigen inactivates the tumour suppressor proteins p53 and pRb. The detailed procedure of cell proliferation (MTT) assay and IC50 determination was described previously.[32]
# [7] = test system: NCI-H460 (NSCLC; p53+, pRb+); test: Cell proliferation (MTT) assay, NCI-H460; assay type: cell-based; conditions: Homo sapiens, 48 h, read-out: IC50 cell growth inhibition, NCI-H460
# Protocol: as §2
# [8] = test system: several human cancer cells; test: Growth inhibition of several human cancer cells; assay type: cell-based
# Protocol: as §2
# [9] = test system: A549 and Calu-1 cells; test: Colony formation (clonogenic) assay, A549 and Calu-1; assay type: cell-based, human; conditions: p53+ A549 and p53-null Calu-1, 12-day experiment
# Protocol: A549 and Calu-1 cells were plated at a concentration of 500 cells per well in 35 mm/6-well plates in 2 ml complete medium. The plates were incubated for 24 h stabilization and further incubated with a range of concentrations of fascaplysin and BPT for 24 h. Plates were then gently washed with PBS, replaced with fresh medium and incubated at 37 °C. After 10–12 days, cells were fixed in methanol:acetic acid (2 : 1) fixative for 10 min, washed, air dried and stained with 1% crystal violet. The colonies were evaluated by visual counts. The number of colonies in treated cultures was expressed as a percentage of the control cultures. All results represent means and standard deviations from at least three independent experiments.
# [10] = Pharmacokinetics in BALB/c mice; assay type: in vivo
# Protocol: Oral and intravenous pharmacokinetic studies of BPT were carried out in BALB/c male mice of age 4–6 weeks, by administering BPT orally and intravenous formulation at dose of 10 mg/kg for oral and 1 mg/kg for intravenous. Plasma samples were collected at appropriate time points between the range 0 and 24 h, and analysed by LC-MS-MS. Mean plasma concentration calculated and data were further analysed to determine PK parameters such as t1/2, Cmax, ACU, Vd and CL, using WinNonlin 5.3 software package (Pharsight Company, Princeton, NJ, USA).
# [11] = MTD finding study; assay type: in vivo; conditions: mice
# Protocol: Swiss-albino mice were used to determine the MTD for the compound. BPT was weighed and mixed with 0.5% (w/v) carboxymethylcellulose and triturated with Tween-20 (secundum artum) with gradual addition of water to make up the final concentration. Care was taken not to exceed >0.25% of Tween-20 in the final formulation of the BPT. In this study, six animals per group were administered with BPT at different doses for 5 days (Q1D × 5) via intraperitoneal route. Animals were monitored for weight loss, morbidity symptoms and mortality up to 2 weeks by the end of treatment. Significant weight loss was considered when mean animal weight dropped by ⩾10% and was considered highly significant when the drop was ⩾20%.
# [12] = test system: HCT-116 tumours; test: HCT-116 xenograft efficacy in SCID mice; assay type: in vivo; conditions: 100 mpk intraperitoneal, 9 days, versus vehicle, P<0.05
# Protocol: A group of 60 SCID (SCID strain-CBySmn.CB17-Prkdc^scid/J; The Jackson Laboratory, Bar harbor, ME, USA; Stock no. 001803) male mice weighing 18–25 g and 6–8 weeks old were used for the studies. Human colon carcinoma, HCT-116 (ATCC; cat. no. CCL-247) cells were grown in McCoy's 5A medium supplemented with 10% FBS (Sigma-Aldrich). The cultured cells were injected subcutaneously into the dorsal side of SCID mice at the dose of 6.6 × 10^6 cells in 0.2 ml of suspension. When the tumour growth reached to about 4–6 mm in diameter (over about 5 days), the animals were randomly divided into eight groups, each containing seven mice. The treatments were continued for 9 consecutive days intraperitoneally. Flavopiridol (2.5 mpk) was used as a positive control in this study. Tumour size was recorded at 2–5 day intervals. Tumour weight (mg) was estimated according to the formula for a prolate ellipsoid: (length (mm) × width (mm)^2) × 0.5) assuming specific gravity to be one and π to be 3. Tumour growth in compound treated animals is calculated as T/C (treated/control) × 100% and growth inhibition percent (% GI) was (100−% T/C).[48], [49], [50]
# [13] = male, mouse, plasma, 1.0 mg/kg intravenous
# Cdk9-cyclin T1, sequence (P50750 whole entry): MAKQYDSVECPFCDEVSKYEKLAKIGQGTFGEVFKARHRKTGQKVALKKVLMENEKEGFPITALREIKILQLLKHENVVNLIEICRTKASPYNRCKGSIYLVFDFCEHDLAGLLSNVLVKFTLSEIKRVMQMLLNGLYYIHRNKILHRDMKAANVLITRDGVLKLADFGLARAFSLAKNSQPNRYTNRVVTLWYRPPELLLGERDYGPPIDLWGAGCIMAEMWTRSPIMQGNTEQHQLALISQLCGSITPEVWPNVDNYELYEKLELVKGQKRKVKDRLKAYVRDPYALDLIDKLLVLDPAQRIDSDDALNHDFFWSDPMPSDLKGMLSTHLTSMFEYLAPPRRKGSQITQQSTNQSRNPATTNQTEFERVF
# Cdk9-cyclin T1, sequence (O60563 whole entry partner): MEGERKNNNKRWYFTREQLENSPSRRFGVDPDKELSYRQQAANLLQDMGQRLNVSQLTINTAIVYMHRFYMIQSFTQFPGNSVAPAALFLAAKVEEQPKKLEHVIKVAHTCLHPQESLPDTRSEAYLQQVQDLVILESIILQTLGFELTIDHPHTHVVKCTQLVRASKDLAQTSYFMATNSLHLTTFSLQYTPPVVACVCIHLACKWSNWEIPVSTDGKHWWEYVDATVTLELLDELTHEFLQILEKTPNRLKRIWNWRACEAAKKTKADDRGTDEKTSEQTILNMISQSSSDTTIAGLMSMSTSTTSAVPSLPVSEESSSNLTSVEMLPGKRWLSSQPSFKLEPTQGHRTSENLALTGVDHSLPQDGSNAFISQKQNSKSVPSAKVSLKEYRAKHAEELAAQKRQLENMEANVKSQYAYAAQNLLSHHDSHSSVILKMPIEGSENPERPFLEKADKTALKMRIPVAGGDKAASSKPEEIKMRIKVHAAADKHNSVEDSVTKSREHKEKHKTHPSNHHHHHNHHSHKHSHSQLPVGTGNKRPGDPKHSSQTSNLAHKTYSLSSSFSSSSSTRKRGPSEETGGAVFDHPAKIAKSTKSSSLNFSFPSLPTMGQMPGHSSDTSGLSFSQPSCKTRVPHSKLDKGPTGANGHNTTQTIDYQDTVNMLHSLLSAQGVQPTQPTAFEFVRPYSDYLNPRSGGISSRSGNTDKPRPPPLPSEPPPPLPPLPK
smiles,measurement,setting,value
"O=C(c1ccccc1-c1ccccc1)N1CCc2c([nH]c3ccccc23)C1 [BPT, 2-(biphenyl-2-carbonyl)-2,3,4,9-tetrahydro-1H-pyrido[3,4-b]indole]",IC50,[1],> 1000 µM
same,IC50,[2],> 10 µM
same,IC50,[3],> 10 µM
same,IC50,[4],> 10 µM
same,inhibition of other kinases (panel of 58),[5],no inhibition against other kinases; also recorded: does not inhibit any kinase to any appreciable degree
same,IC50,[6],0.74 µM
same,IC50,[7],0.6 µM
same,IC50,[8],< 1 µM
same,colony formation efficiency,[9],significant reduction
same,oral bioavailability,[10],poor
same,plasma exposure after intravenous administration,[10],good plasma exposure
same,CL,[10]; 1.0 mg/kg intravenous,95.8 ml/min per kg
same,AUC(0-inf),[10]; [13],174 ng·h/mL
same,AUC(0-t),[10]; [13],170 ng·h/mL
same,C0,[10]; [13],888 ng/mL
same,Cmax,[10]; [13],413 ng/mL
same,Vd,[10]; [13],1.56 L/kg
same,half-life,[10]; [13],11.4 min
same,AUC(0-t),"[10]; male, mouse, plasma, oral, 10 mg/kg per os",17.7 ng·h/mL
same,maximum-tolerated dose,[11],1000 mg/kg
same,tumour growth inhibition,[12],~ 80%
